Several values for one entry are separate records, joined by “and”; a condition that tells them apart may be missing. Identical values can stand only once.
How the values were obtained:
[1] = system: rat liver microsomes (RLM); assay: Rat liver microsomal incubation, metabolite formation quantified by UPLC; conditions: RLM
Protocol: (§1) The incubation mixtures were prepared and incubated in glass vials to avoid plastic binding of the substrates. The glass vials were capped to prevent substrate loss due to volatility. After preincubation of the incubation mixture at 37 °C for 1 min, the enzymatic reaction was initiated by adding microsomes to the incubation mixture which was subsequently incubated at 37 °C for 20 min. The reaction was terminated by adding 100 µl ice-cold acetonitrile followed by vortexing. After 5 min centrifugation at 5000 rpm (4000 × g), 4 °C, the supernatant was collected for ultraperformance liquid chromatography (UPLC) analysis. […] Therefore, a diisopropylether (DIPE) extraction of the metabolites was performed after the reaction was stopped by the addition of 20 µl 10% HClO4. To this end, the incubation mixture (total volume of 220 µl) was extracted three times with 1 ml DIPE. Each time, the upper organic layer was collected and the DIPE was subsequently evaporated from the combined organic fractions with a gentle stream of nitrogen. The residues were dissolved in 100 µl methanol and analyzed by UPLC.
(§2) The metabolites formed were analyzed and quantified using an Acquity UPLC system equipped with a photodiode array (PDA) detector (Waters, Milford, MA). The metabolites and their parent compound were separated on a reverse phase Acquity UPLC® BEH C18 column ([…], 1.7 µm, Waters, Milford, MA) and detected at wavelengths ranging from 190 to 400 nm. Eluent A was nano-pure water containing 0.1% trifluoroacetic acid (v/v), and eluent B was acetonitrile containing 0.1% trifluoroacetic acid (v/v). The gradient elution started from 90% A and 10% B applied from 0.0 min to 0.5 min, which was changed to 0% A and 100% B from 0.5 to 15.5 min and then kept at 0% A and 100% B from 15.5 min to 18.5 min, changed back to 90% A and 10% B from 18.5 to 18.6 min and then maintained at the starting conditions from 18.6 min until 22 min. The total run time was 22 min using a flow rate of 0.6 ml/min. The temperature of the column was set at 40 °C and that of the autosampler at 10 °C during the UPLC analysis. The injection volume was 3.5 µl. Metabolites were quantified using their peak area at the wavelength specified in Table 1, using calibration curves of available reference compounds. Metabolites were identified by comparing their retention time (RT) and UV spectrum to those of reference chemicals on UPLC. When reference chemicals were not available, metabolite identification by gas chromatography-triple quadrupole mass spectrometry (GC–MS/MS) was performed. The minor metabolites were identified by elution time and mass spectra both on UPLC and GC–MS/MS, and by comparison with available elution and spectral information from the literature.
(§3) The metabolite concentrations in the microsomal incubation mixtures as quantified by UPLC were used to calculate the rate of the enzymatic conversions in pmol/min/mg microsomal protein. The kinetic parameters KM and Vmax were obtained using a nonlinear regression curve fit applying the Michaelis Menten equation in GraphPad Prism 5 (San Diego, USA). To compare the catalytic efficiency of formation of the different metabolites the intrinsic clearance (Clint) was calculated as Vmax divided by KM.

[2] = system: human liver microsomes (HLM); assay: Human liver microsomal incubation, metabolite formation quantified by UPLC; conditions: HLM
Protocol: as §1, §2, §3

[3] = system: Salmonella typhimurium TA100; assay: Reverse mutation assay (Ames test), TA100; conditions: positive control, 650 µg/plate MMS; mean ± SD of 3 plates
Protocol: (§4) Six concentrations of each compound were tested in triplicate in the absence and presence of 5% (v/v) S9-mix prepared from the livers of Aroclor 1254 treated Sprague–Dawley rats. The S9-mix contained 4 mM NADP, 5.8 mM glucose-6-phosphate, 0.1 M sodium phosphate pH 7.4, 8 mM MgCl2, 33 mM KCl and 5% S9 homogenate. Fresh bacterial cultures were prepared overnight to reach 10^9 cells/ml. The following solutions were pre-incubated in a rotating incubator at 70 rpm and 37 °C, and contained either 0.5 ml S9-mix (in case of S9 presence) or 0.5 ml 0.1 M potassium phosphate pH 7.4 (in case of S9 absence), 0.1 ml of a fresh bacterial culture (10^9 cells/ml) of TA98 or TA100, and 10–100 µg test compound. Top agar was melted and heated to 45 °C. After preincubation, the substrate solutions were added to 3 ml of the molten top agar and mixed by vortexing and the top agar mixture was poured onto a minimal glucose agar plate. After solidification of the top agar, the plates were incubated at 37 °C for 48 h. The number of revertant colonies per plate was automatically counted with the Instem Sorcerer Colony Counter (Staffordshire, UK). In the absence of S9-mix, 2-nitrofluorene (NF) and methylmethanesulfonate (MMS) were tested as positive controls for incubations with TA98 and TA100, respectively. In the presence of S9-mix, 2-aminoanthracene (2AA) was tested as a positive control in both TA98 and TA100. DMSO was tested as a solvent control in both tester strains.

[4] = system: Salmonella typhimurium TA98; assay: Reverse mutation assay (Ames test), TA98; conditions: positive control, 10 µg/plate NF; mean ± SD of 3 plates
Protocol: as §4, with “and 10–100 µg test compound.” left out

[5] = 0 to 600 μM, 20 min, NM = no metabolism
[6] = substrate 1-N-hexylphenanthrene
[7] = substrate 10-Methyl-9-ethylphenanthrene

In the case of `CCCCCCCCCCCCc1cccc2c1ccc1ccccc12` [1-N-dodecylphenanthrene, 1-n-dodecylphenanthrene], the “Metabolic conversion (metabolites formed)” value [1, 5] is reported as “No metabolic conversion was observed” and the “Metabolic conversion (metabolites formed)” value [2, 5] is reported as “No metabolic conversion was observed”.

`CCCCCCc1cccc2c1ccc1ccccc12` [1-N-hexylphenanthrene, 1-n-Hexylphenanthrene] was tested, and the “Vmax, formation of 1-Hydroxyhexyl-phenanthrene RT = 8.45 min” value [1, 6] was 103.4 ± 18.1 pmol/min/mg microsomal protein, the “Vmax, formation of 1-Hydroxyhexyl-phenanthrene RT = 8.58 min” value [1, 6] was 54.8 ± 5.2 pmol/min/mg microsomal protein and the “Vmax, formation of 1-Hydroxyhexyl-phenanthrene RT = 8.82 min” value [1, 6] was 25.6 ± 1.8 pmol/min/mg microsomal protein. The “Vmax, formation of 1-Hydroxyhexyl-phenanthrene RT = 9.13 min” value [1, 6] was 11.7 ± 0.9 pmol/min/mg microsomal protein, the “Vmax, formation of 1-Hydroxyhexyl-phenanthrene RT = 8.45 min” value [2, 6] was 48.3 ± 6.1 pmol/min/mg microsomal protein and the “Vmax, formation of 1-Hydroxyhexyl-phenanthrene RT = 8.82 min” value [2, 6] was 44.2 ± 4.8 pmol/min/mg microsomal protein.

In the case of `CCc1ccc2c(ccc3ccccc32)c1` [2-Ethylphenanthrene], the “Vmax, formation of 2-(1-Hydroxyethyl)-phenanthrene RT = 6.21 min” value ([1]; substrate 2-Ethylphenanthrene) is reported as 3149.0 ± 266.1 pmol/min/mg microsomal protein, the “Vmax, formation of 2-Ethylphenanthrol RT = 7.57 min” value ([1]; substrate 2-Ethylphenanthrene) is reported as 16.5 ± 3.1 pmol/min/mg microsomal protein and the “Vmax, formation of 2-Ethylphenanthrol RT = 7.74 min” value ([1]; substrate 2-Ethylphenanthrene) is reported as 16.6 ± 2.7 pmol/min/mg microsomal protein. The “Vmax, formation of 2-Ethylphenanthrol RT = 7.89 min” value ([1]; substrate 2-Ethylphenanthrene) was 11.8 ± 2.4 pmol/min/mg microsomal protein, the “Vmax, formation of Dihydro-2-ethylphenanthrene-diol RT = 4.6 min” value ([1]; substrate 2-Ethylphenanthrene) was 33.9 ± 11.8 pmol/min/mg microsomal protein and the “Vmax, formation of Dihydro-2-ethylphenanthrene-diol RT = 5.29 min” value ([1]; substrate 2-Ethylphenanthrene) was 42.9 ± 3.5 pmol/min/mg microsomal protein. For the same molecule, the “Vmax, formation of Unknown metabolite RT = 9.38 min” value ([1]; substrate 2-Ethylphenanthrene) was 238.0 ± 23.9 pmol/min/mg microsomal protein, the “Vmax, formation of 2-(1-Hydroxyethyl)-phenanthrene RT = 6.21 min” value ([2]; substrate 2-Ethylphenanthrene) was 468.8 ± 50.3 pmol/min/mg microsomal protein and the “Vmax, formation of Dihydro-2-ethylphenanthrene-diol RT = 5.16 min” value ([2]; substrate 2-Ethylphenanthrene) was 18.4 ± 3.2 pmol/min/mg microsomal protein. For the same molecule, the “Vmax, formation of Dihydro-2-ethylphenanthrene-diol RT = 5.29 min” value ([2]; substrate 2-Ethylphenanthrene) was 22.1 ± 3.0 pmol/min/mg microsomal protein and the “Vmax, formation of Unknown metabolite RT = 9.38 min” value ([2]; substrate 2-Ethylphenanthrene) was 37.2 ± 6.5 pmol/min/mg microsomal protein.

For `CCc1cc2ccccc2c2ccccc12` [9-Ethylphenanthrene], the “Vmax, formation of 9-(1-Hydroxyethyl)-phenanthrene RT = 6.20 min” value ([1]; substrate 9-Ethylphenanthrene) was 1206 ± 47.9 pmol/min/mg microsomal protein, the “Vmax, formation of 9-(2-Hydroxyethyl)-phenanthrene RT = 6.00 min” value ([1]; substrate 9-Ethylphenanthrene) was 37.0 ± 2.26 pmol/min/mg microsomal protein and the “Vmax, formation of 9-Ethylphenanthrol RT = 7.42 min” value ([1]; substrate 9-Ethylphenanthrene) was 29.7 ± 3.1 pmol/min/mg microsomal protein. The “Vmax, formation of 9-Ethylphenanthrol RT = 7.58 min” value ([1]; substrate 9-Ethylphenanthrene) was 56.6 ± 1.8 pmol/min/mg microsomal protein, the “Vmax, formation of 9-Ethylphenanthrol RT = 7.93 min” value ([1]; substrate 9-Ethylphenanthrene) was 22.8 ± 1.8 pmol/min/mg microsomal protein and the “Vmax, formation of Dihydro-9-ethylphenanthrene-diol RT = 3.81 min” value ([1]; substrate 9-Ethylphenanthrene) was 12.0 ± 2.1 pmol/min/mg microsomal protein. The “Vmax, formation of Unknown metabolite RT = 9.35 min” value ([1]; substrate 9-Ethylphenanthrene) was 52.7 ± 6.2 pmol/min/mg microsomal protein, the “Vmax, formation of 9-(1-Hydroxyethyl)-phenanthrene RT = 6.20 min” value ([2]; substrate 9-Ethylphenanthrene) was 267.7 ± 17.4 pmol/min/mg microsomal protein and the “Vmax, formation of 9-(2-Hydroxyethyl)-phenanthrene RT = 6.00 min” value ([2]; substrate 9-Ethylphenanthrene) was 61.4 ± 3.3 pmol/min/mg microsomal protein. For the same molecule, the “Vmax, formation of 9-Ethylphenanthrol RT = 7.42 min” value ([2]; substrate 9-Ethylphenanthrene) was 12.8 ± 1.1 pmol/min/mg microsomal protein, the “Vmax, formation of 9-Ethylphenanthrol RT = 7.58 min” value ([2]; substrate 9-Ethylphenanthrene) was 29.1 ± 2.8 pmol/min/mg microsomal protein and the “Vmax, formation of Dihydro-9-ethylphenanthrene-diol RT = 3.81 min” value ([2]; substrate 9-Ethylphenanthrene) was 15.2 ± 0.8 pmol/min/mg microsomal protein. For the same molecule, the “Vmax, formation of Dihydro-9-ethylphenanthrene-diol RT = 3.88 min” value ([2]; substrate 9-Ethylphenanthrene) was 23.5 ± 1.4 pmol/min/mg microsomal protein.

`CCc1c(C)c2ccccc2c2ccccc12` [10-Methyl-9-ethylphenanthrene] was tested, and the “Vmax, formation of 9-(1-Hydroxyethyl)-10-methylphenanthrene RT = 6.65 min” value [1, 7] was 630.2 ± 81.4 pmol/min/mg microsomal protein, the “Vmax, formation of 9-(2-Hydroxyethyl)-10-methylphenanthrene RT = 6.5 min” value [1, 7] was 21.0 ± 3.1 pmol/min/mg microsomal protein and the “Vmax, formation of 9-Ethyl-10-(1-hydroxymethyl)-phenanthrene RT = 6.90 min” value [1, 7] was 85.8 ± 11.6 pmol/min/mg microsomal protein. The “Vmax, formation of 9-Ethyl-10-methylphenanthrol RT = 7.82 min” value [1, 7] was 65.6 ± 9.8 pmol/min/mg microsomal protein, the “Vmax, formation of 9-Ethyl-10-methylphenanthrol RT = 8.3 min” value [1, 7] was 29.4 ± 7.7 pmol/min/mg microsomal protein and the “Vmax, formation of Dihydro-10-methyl-9-ethylphenanthrene-diol RT = 4.29 min” value [1, 7] was 6.4 ± 2.7 pmol/min/mg microsomal protein. For the same molecule, the “Vmax, formation of Dihydro-10-methyl-9-ethylphenanthrene-diol RT = 4.34 min” value [1, 7] was 8.09 ± 1.6 pmol/min/mg microsomal protein, the “Vmax, formation of 9-(1-Hydroxyethyl)-10-methylphenanthrene RT = 6.65 min” value [2, 7] was 187.1 ± 45.2 pmol/min/mg microsomal protein and the “Vmax, formation of 9-(2-Hydroxyethyl)-10-methylphenanthrene RT = 6.5 min” value [2, 7] was 12.9 ± 1.8 pmol/min/mg microsomal protein. The “Vmax, formation of 9-Ethyl-10-(1-hydroxymethyl)-phenanthrene RT = 6.90 min” value [2, 7] was 85.9 ± 17.4 pmol/min/mg microsomal protein, the “Vmax, formation of Dihydro-10-methyl-9-ethylphenanthrene-diol RT = 4.29 min” value [2, 7] was 7.2 ± 1.7 pmol/min/mg microsomal protein and the “Vmax, formation of Dihydro-10-methyl-9-ethylphenanthrene-diol RT = 4.34 min” value [2, 7] was 10.5 ± 2.5 pmol/min/mg microsomal protein.

In the case of `COS(C)(=O)=O` [MMS, methylmethanesulfonate, reference compound], the “His + revertant colonies TA100 without S9-mix” value [3] is reported as 868±70 and 823±58 and 783±46.

In the case of `O=[N+]([O-])c1ccc2c(c1)Cc1ccccc1-2` [NF, 2-nitrofluorene, reference compound], the “His + revertant colonies TA98 without S9-mix” value [4] is reported as 1590±295.

From publication PMC8921064 (Archives of Toxicology, 2022)
